For assay [1], the target named is T1, Lysosomal acid glucosylceramidase (Mus musculus, UniProt P17439).
T1 sequence (P17439 whole entry): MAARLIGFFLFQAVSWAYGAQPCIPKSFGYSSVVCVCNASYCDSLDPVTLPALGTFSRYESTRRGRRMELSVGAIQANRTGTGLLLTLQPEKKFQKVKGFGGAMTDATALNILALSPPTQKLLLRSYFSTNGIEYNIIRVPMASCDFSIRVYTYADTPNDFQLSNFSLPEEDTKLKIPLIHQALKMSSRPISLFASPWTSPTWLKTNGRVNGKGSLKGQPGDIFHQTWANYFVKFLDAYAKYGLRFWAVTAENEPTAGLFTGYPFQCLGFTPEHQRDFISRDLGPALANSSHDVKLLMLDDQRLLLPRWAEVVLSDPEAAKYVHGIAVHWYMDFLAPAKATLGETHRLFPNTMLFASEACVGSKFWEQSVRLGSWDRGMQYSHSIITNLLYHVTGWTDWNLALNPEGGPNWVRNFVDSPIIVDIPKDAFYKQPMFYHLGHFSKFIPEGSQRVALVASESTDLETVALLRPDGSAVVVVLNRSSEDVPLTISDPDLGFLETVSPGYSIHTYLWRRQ
Kind of assay: Inhibitory activity against Glucosylceramidase in mouse liver. It counts as tissue-based.

Assay [2] concerns the target T1, Lysosomal acid glucosylceramidase. Kind of assay: Inhibitory activity against Glucosylceramidase in mouse liver at a concentration of 10e-4 M; NA is inactive. Format: tissue-based.
For assay [3] the target is unchanged. Kind of assay: Inhibitory activity against Glucosylceramidase in mouse liver; Significant activity.
Another assay addresses T2, Galactocerebrosidase (Mus musculus, UniProt P54818).
T2 sequence (P54818 whole entry): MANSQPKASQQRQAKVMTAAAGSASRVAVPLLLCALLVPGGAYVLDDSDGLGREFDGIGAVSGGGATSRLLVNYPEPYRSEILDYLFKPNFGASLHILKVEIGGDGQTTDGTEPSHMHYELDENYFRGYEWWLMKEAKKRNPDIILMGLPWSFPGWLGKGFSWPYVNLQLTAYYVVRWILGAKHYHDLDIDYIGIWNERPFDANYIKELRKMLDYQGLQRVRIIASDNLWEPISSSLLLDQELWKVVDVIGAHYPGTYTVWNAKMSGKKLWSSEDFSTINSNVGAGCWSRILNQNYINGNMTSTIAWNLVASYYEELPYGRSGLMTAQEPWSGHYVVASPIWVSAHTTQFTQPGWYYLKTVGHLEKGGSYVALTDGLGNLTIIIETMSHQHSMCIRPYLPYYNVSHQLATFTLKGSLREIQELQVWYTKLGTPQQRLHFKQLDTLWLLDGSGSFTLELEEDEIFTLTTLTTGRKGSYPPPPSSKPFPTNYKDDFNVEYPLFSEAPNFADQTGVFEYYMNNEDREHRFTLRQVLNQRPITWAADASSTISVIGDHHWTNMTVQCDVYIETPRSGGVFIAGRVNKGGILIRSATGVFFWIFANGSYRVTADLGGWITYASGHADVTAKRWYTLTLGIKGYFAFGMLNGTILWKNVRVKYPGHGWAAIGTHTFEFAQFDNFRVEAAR
Kind of assay: Inhibitory activity against Galactocerebrosidase; NA is not active.

The target in assay [4] is T1, Lysosomal acid glucosylceramidase. Kind of assay: Inhibitory activity against Glucosylceramidase in mouse liver relative to compound 5; Active. Format: tissue-based.
Assay [5] has the same target. Kind of assay: Specific inhibitory activity against Glucosylceramidase in mouse liver. Format: tissue-based.
For assay [6] the target is unchanged. Kind of assay: Specific inhibitory activity against Glucosylceramidase in mouse liver; Significant activity.

Each structure is given as a SMILES string.

Broadly, the IC50 is the point on the concentration scale where inhibition reaches its midpoint. In turn, `O[C@@H]1[C@H]2O[C@H]2[C@H](O)C[C@H]1O` registered an IC50 in assay [1] of 98 µM.
Turning to `O[C@H]1[C@H](O)[C@H](O)C[C@@H]2O[C@H]12`, the 50% inhibitory concentration (IC50) entry in assay [2] is reported as “Not Active”.
As for `O[C@@H]1[C@H](O)[C@H](O)C[C@H]2O[C@@H]12`, the half-inhibitory concentration (IC50) result in assay [2] is “Not Active”.
Take `O[C@@H]1[C@H](O)[C@H]2O[C@H]2C[C@@H]1O`: the IC50 entry in assay [2] is “Not Active”.
Same read-out and setting: under `O[C@H]1[C@@H]2O[C@@H]2[C@@H](O)C[C@H]1O` stands “Not Active”.
Take `O[C@@H]1[C@@H](O)[C@H](O)C[C@H](O)[C@@H]1O`: the concentration for half-maximal inhibition (IC50) entry in assay [3] was “Significant activity”.
Take `O[C@@H]1[C@@H](O)[C@H](O)C[C@H]2O[C@@H]12`: the results for the IC50 result (at Galactocerebrosidase; in assay [1]) were “Not Active” and 0.96 µM, respectively.
As for `O[C@@H]1[C@H]2O[C@H]2[C@H](O)C[C@@H]1O`, in assay [2], the IC50 entry is given as “Not Active”.
With `O[C@@H]1[C@H](O)[C@H]2O[C@H]2C[C@H]1O`, in assay [2], the IC50 result is listed as “Not Active”.
Regarding `O[C@@H]1[C@H]2O[C@H]2[C@@H](O)C[C@H]1O`, the IC50 result in assay [2] was “Not Active”.
For `O[C@@H]1[C@@H](O)[C@H](O)C[C@@H]2O[C@H]12`, the half-maximal inhibitory concentration (IC50) result in assay [4] is given as “Active”.
Regarding `O[C@@H]1[C@@H](O)[C@H](O)C[C@@H](O)[C@H]1O`, in assay [3], the IC50 entry is given as “Significant activity”.
Turning to `O[C@H]1[C@H]2O[C@H]2[C@H](O)C[C@H]1O`, the IC50 entry in assay [2] is “Not Active”.
In the case of `O[C@H]1[C@@H]2O[C@@H]2[C@H](O)C[C@@H]1O`, the IC50 entry in assay [4] is recorded as “Active”.
Regarding `O[C@H]1[C@H](O)[C@@H](O)[C@@H]2O[C@@H]2[C@@H]1O` [CONDURITOL B EPOXIDE], in assay [5], it took 8.9 µM to reach half-maximal inhibition (IC50).
`OC[C@@H]1[C@@H](O)[C@H](O)[C@@H](O)[C@@H]2O[C@H]12` [CYCLOPHELLITOL]: the IC50 entry in assay [6] is “Significant activity”.

The record behind these values is ChEMBL document CHEMBL1132265, “Synthesis and evaluation of glucocerebrosidase inhibitory activity of anhydro deoxyinositols from (+)-epi- and (-)-vibo-quercitols” (Bioorg Med Chem Lett, 1999).
